Data set [1] deals with prostate cancer cells (PC-3). The data set can be described thus: MTS-based cytotoxicity assay, PC-3. Particulars: 72 h treatment, 0.205–50 μM, mean ± SEM. The data set is classed as cell-based, human. As to the method:
(§1) In this study, we applied the most extensively used MTS-based assay, which provides a valuable tool for determining cell viability by evaluating metabolic activity. The cytostatic activity of the tested compounds was defined as the half-maximal inhibitory concentration (IC50) causing a 50% decrease in the metabolic activity of the cells. It was determined against breast cancer (MCF-7), fibrosarcoma (HT-1080), and prostate cancer (PC-3) cells.
(§2) The tested compounds were tested against three different human cancer cell lines (breast adenocarcinoma MCF-7 ATCC® HTB-22^TM, fibrosarcoma HT-1080 ATCC® CCL121^TM, and prostate adenocarcinoma PC-3 ATCC® CRL-1435^TM). For the cell viability experiment, cells were seeded in transparent 96-well plates (FALCON no. 353072, Corning, Durham, NC, USA) in MEM (Gibco no. 31095-029, UK) supplemented with 10% heat-inactivated FBS (Gibco no. 10500-064, UK). The cell seeding density was as follows: MCF-7 12,000 cells/well, HT-1080 7000 cells/well, PC-3 10,000 cells/well. Cells were seeded one day before treatment with the tested compounds and cultured overnight. The confluence on the treatment day was around 30%. The tested compounds were dissolved in DMSO as 10 mM stock solutions and kept under −4 °C. On the day of experimentation, the medium was removed and replaced with a fresh one that contained the following: (1) dimethylsulfoxide (DMSO < 0.1%, vehicle control (Veh)); (2) increasing the concentration of compounds (0.205–50 μM, performed as a 2.5-fold serial dilution for dose–response analysis). Treatment with compounds was carried out for 72 h. Each treatment was replicated three times in a single experiment, with three separate experiments conducted. (n = 9). When significant variability in the results occurred, an additional test was performed on certain compounds. During the incubation, the cells were examined under an inverted microscope to check if the compounds had not precipitated in the culture medium. The inhibitory effect of compounds on the cell was examined using an MTS-based assay (Promega, Madison, WI, USA) following the manufacturer’s protocol. The absorbance was measured at 490 nm using Tecan Spark’s multimode plate reader (Tecan, Männedorf, Switzerland). A reference wavelength of 630 nm was used to subtract the background. IC50 values were calculated by fitting a non-linear regression to a sigmoidal dose–response curve in GraphPad Prism version 8.0.1.
On the technique in general: Tetrazolium dyes change colour on reduction, which living cells bring about.

The subject of data set [2] is fibrosarcoma cells (HT-1080). The experiment in a line: MTS-based cytotoxicity assay, HT-1080. The data set is classed as cell-based, human. The following applies: 72 h treatment, 0.205–50 μM, mean ± SEM. The procedure: as §1, §2
Data set [3] relates to breast cancer cells (MCF-7). The data set can be described thus: MTS-based cytotoxicity assay, MCF-7. Particulars: 72 h treatment, 0.205–50 μM, mean ± SEM. The data set is classed as cell-based, human. The procedure: as §1, §2
For data set [4], the system named is human skin fibroblast (HSF). The experiment in a line: Safety study in vitro (MTS viability), HSF. The data set is classed as cell-based. Particulars: 0.205–50 μM, 72 h. The procedure:
(§3) In drug development, particular attention should be paid to studying the safety profile of compounds. Promising drug candidates should not cause adverse effects on essential organ systems like the liver, kidney, or healthy cells in general. Systemic toxicity of the compound is the main factor limiting its therapeutic application and efficiency. In our study, a preliminary study on nephrotoxicity and hepatotoxicity was evaluated in human embryonic kidney cells (HEK293, ATCC® CRL1573™) and human hepatoma cells (HepG2, ATCC® HB8065™), respectively. HEK293 is commonly used to evaluate the cytotoxicity of nephrotoxic compounds [42]. HepG2 is a well-established in vitro human cell system to study liver toxicity. We also used healthy human skin fibroblast (HSF) to extend the cytotoxicity profile. All three cell lines were cultured in DMEM (Gibco no. 61965-026, UK) supplemented with 10% FBS (Gibco no. 10500-064, UK). For the experiment, cells were seeded (8 × 10^3 cells/100μL/well) in transparent 96-well plates (FALCON no. 353072, Corning, Durham, […], USA) and cultured overnight. […] DOX was a reference compound that adversely affected the liver, kidney, and healthy cells. Treatment with compounds was carried out for 72 h. Cell viability was examined using an MTS-based CellTiter96® AQueous One Solution Cell Proliferation Assay (Promega, Madison, WI, USA) following the manufacturer’s protocol.

In data set [5] the test system is human hepatoma cells (HepG2). The experiment in a line: Safety study in vitro (MTS viability), HepG2. The data set is classed as cell-based. Particulars: 0.205–50 μM, 72 h. The procedure:
as §3

For data set [6], the system named is human embryonic kidney cells (HEK293). The data set can be described thus: Safety study in vitro (MTS viability), HEK293. The data set is classed as cell-based. The following applies: 0.205–50 μM, 72 h. As to the method: as §3

These results are taken from publication PMC11243672, “New 3-(Dibenzyloxyphosphoryl)isoxazolidine Conjugates of N1-Benzylated Quinazoline-2,4-diones as Potential Cytotoxic Agents against Cancer Cell Lines” (Molecules, 2024).

As for `O=c1c2ccccc2n(C[C@@H]2C[C@@H](P(=O)(OCc3ccccc3)OCc3ccccc3)N(Cc3ccccc3)O2)c(=O)n1Cc1ccc([N+](=O)[O-])cc1` (relative stereo) [trans-16g, Dibenzyl cis- and trans-(2-benzyl-5-((3-(4-nitrobenzyl)-2,4-dioxo-3,4-dihydroquinazolin-1(2H)-yl)methyl)isoxazolidin-3-yl)phosphonate], the IC50 (as a rule, the concentration that gives 50% inhibition) in data set [1] (Homo sapiens, 72 h) turned out to be 16.7 ± 3.48 µM; in data set [2] (Homo sapiens, HT-1080, 72 h) it was 16.6 ± 3.11 µM; in data set [3] (Homo sapiens, MCF7, 72 h), 142 ± 5.11 µM.
Consider `O=c1c2ccccc2n(C[C@@H]2C[C@@H](P(=O)(OCc3ccccc3)OCc3ccccc3)N(Cc3ccccc3)O2)c(=O)n1Cc1ccccc1[N+](=O)[O-]` (relative stereo) [trans-16e, Dibenzyl cis- and trans-(2-benzyl-5-((3-(2-nitrobenzyl)-2,4-dioxo-3,4-dihydroquinazolin-1(2H)-yl)methyl)isoxazolidin-3-yl)phosphonate], for which the IC50 worked out at 26.6 ± 1.09 µM in data set [1] (Homo sapiens, 72 h); 29.8 ± 4.75 µM in data set [2] (Homo sapiens, HT-1080, 72 h); 57.9 ± 8.36 µM in data set [3] (Homo sapiens, MCF7, 72 h).
Consider `O=c1c2ccccc2n(CC2CC(P(=O)(OCc3ccccc3)OCc3ccccc3)N(Cc3ccccc3)O2)c(=O)n1Cc1cccc([N+](=O)[O-])c1` (stereo not drawn) [cis-16f/trans-16f (96:4), Dibenzyl cis- and trans-2-benzyl-5-((3-(3-nitrobenzyl)-2,4-dioxo-3,4-dihydroquinazolin-1(2H)-yl)methyl)isoxazolidin-3-yl)phosphonate], for which the IC50 in data set [1] (Homo sapiens, 72 h) is 24.8 ± 2.15 µM; in data set [2] (Homo sapiens, HT-1080, 72 h), 17.1 ± 5.73 µM; in data set [3] (Homo sapiens, MCF7, 72 h), 91.7 ± 1.47 µM.
The like results for `O=c1c2ccccc2n(CC2CC(P(=O)(OCc3ccccc3)OCc3ccccc3)N(Cc3ccccc3)O2)c(=O)n1Cc1ccc(F)cc1` (stereo not drawn) [cis-16d/trans-16d (96:4), Dibenzyl cis- and trans-5-((3-(4-fluorobenzyl)-3,4-dihydro-2,4-dioxoquinazolin-1(2H)-yl)methyl)-2-benzylisoxazolidin-3-yl-3-phosphonate] were, in that order, 16.4 ± 3.69 µM, 10.4 ± 2.69 µM and 116 ± 5.73 µM.
Turning to `O=c1c2ccccc2n(C[C@@H]2C[C@@H](P(=O)(OCc3ccccc3)OCc3ccccc3)N(Cc3ccccc3)O2)c(=O)n1Cc1ccc(F)cc1` (relative stereo) [trans-16d, Dibenzyl cis- and trans-5-((3-(4-fluorobenzyl)-3,4-dihydro-2,4-dioxoquinazolin-1(2H)-yl)methyl)-2-benzylisoxazolidin-3-yl-3-phosphonate], the IC50 in data set [1] (Homo sapiens, 72 h) turned out to be 13.9 ± 2.14 µM; in data set [2] (Homo sapiens, HT-1080, 72 h), 35.6 ± 3.03 µM; in data set [3] (Homo sapiens, MCF7, 72 h), 88.9 ± 3.86 µM.
As to `O=c1c2ccccc2n(CC2CC(P(=O)(OCc3ccccc3)OCc3ccccc3)N(Cc3ccccc3)O2)c(=O)n1Cc1cccc(F)c1` (stereo not drawn) [cis-16c/trans-16c (90:10), Dibenzyl cis- and trans-5-((3-(3-fluorobenzyl)-3,4-dihydro-2,4-dioxoquinazolin-1(2H)-yl)methyl)-2-benzylisoxazolidin-3-yl-3-phosphonate], the IC50 in data set [1] (Homo sapiens, 72 h) is 17.6 ± 6.21 µM; in data set [2] (Homo sapiens, HT-1080, 72 h) it was 20.5 ± 1.56 µM; in data set [3] (Homo sapiens, MCF7, 72 h) it was 238 ± 20.7 µM.
The like results for `O=c1c2ccccc2n(C[C@@H]2C[C@@H](P(=O)(OCc3ccccc3)OCc3ccccc3)N(Cc3ccccc3)O2)c(=O)n1Cc1cccc(F)c1` (relative stereo) [trans-16c, Dibenzyl cis- and trans-5-((3-(3-fluorobenzyl)-3,4-dihydro-2,4-dioxoquinazolin-1(2H)-yl)methyl)-2-benzylisoxazolidin-3-yl-3-phosphonate] were, in that order, 16.4 ± 4.32 µM, 42.3 ± 3.48 µM and 130 ± 9.97 µM.
On the same counts, the results for `O=c1c2ccccc2n(CC2CC(P(=O)(OCc3ccccc3)OCc3ccccc3)N(Cc3ccccc3)O2)c(=O)n1Cc1ccc([N+](=O)[O-])cc1` (stereo not drawn) [cis-16g/trans-16g (88:12), Dibenzyl cis- and trans-(2-benzyl-5-((3-(4-nitrobenzyl)-2,4-dioxo-3,4-dihydroquinazolin-1(2H)-yl)methyl)isoxazolidin-3-yl)phosphonate] are 21.5 ± 4.63 µM, 16.4 ± 2.03 µM and 116 ± 9.69 µM.
In the case of `O=c1c2ccccc2n(CC2CC(P(=O)(OCc3ccccc3)OCc3ccccc3)N(Cc3ccccc3)O2)c(=O)n1Cc1ccccc1` (stereo not drawn) [cis-16a/trans-16a (97:3), Dibenzyl cis- and trans-2-benzyl-5-((3-benzyl-3,4-dihydro-2,4-dioxoquinazolin-1(2H)-yl)methyl)isoxazolidin-3-yl-3-phosphonate], in data set [4], the “Cell viability, HSF” value is “no adverse effect was observed”. Moreover, the IC50 in data set [1] (Homo sapiens, 72 h) was 12.6 ± 5.56 µM; in data set [2], 19.9 ± 8.13 µM; in data set [3] (Homo sapiens, MCF7, 72 h), 90.3 ± 4.57 µM. Also, the “Cell viability, HepG2” value in data set [5] is listed as “did not affect cell viability”. Also, the “Cell viability, HEK293” value in data set [6] is listed as “did not affect cell viability”.
With `O=c1c2ccccc2n(CC2CC(P(=O)(OCc3ccccc3)OCc3ccccc3)N(Cc3ccccc3)O2)c(=O)n1Cc1ccccc1[N+](=O)[O-]` (stereo not drawn) [cis-16e/trans-16e (70:30), Dibenzyl cis- and trans-(2-benzyl-5-((3-(2-nitrobenzyl)-2,4-dioxo-3,4-dihydroquinazolin-1(2H)-yl)methyl)isoxazolidin-3-yl)phosphonate], the IC50 worked out at 26.6 ± 4.69 µM in data set [1] (Homo sapiens, 72 h); 59.6 ± 0.36 µM in data set [2] (Homo sapiens, HT-1080, 72 h); 59.1 ± 3.77 µM in data set [3] (Homo sapiens, MCF7, 72 h).
For `COc1cccc2c1C(=O)c1c(O)c3c(c(O)c1C2=O)C[C@@](O)(C(=O)CO)C[C@@H]3O[C@H]1C[C@H](N)[C@H](O)[C@H](C)O1` [Doxorubicin, reference compound], in data set [4], the “Cell viability, HSF” value is on record as “significant cytotoxic effect”. In data set [5], the “Cell viability, HepG2” value is “significant cytotoxic effect”. In addition, in data set [6], the “Cell viability, HEK293” value was “significant cytotoxic effect”.
`O=c1c2ccccc2n(CC2CC(P(=O)(OCc3ccccc3)OCc3ccccc3)N(Cc3ccccc3)O2)c(=O)n1Cc1ccccc1` (stereo not drawn) [trans-16a, Dibenzyl cis- and trans-2-benzyl-5-((3-benzyl-3,4-dihydro-2,4-dioxoquinazolin-1(2H)-yl)methyl)isoxazolidin-3-yl-3-phosphonate]: the IC50 was 12.7 ± 3.45 µM in data set [1], 40.5 ± 5.44 µM in data set [2] and 96 ± 4.66 µM in data set [3].
Take `O=c1c2ccccc2n(CC2CC(P(=O)(OCc3ccccc3)OCc3ccccc3)N(Cc3ccccc3)O2)c(=O)n1Cc1ccccc1F` (stereo not drawn) [cis-16b/trans-16b (90:10), Dibenzyl cis- and trans-5-((3-(2-fluorobenzyl)-3,4-dihydro-2,4-dioxoquinazolin-1(2H)-yl)methyl)-2-benzylisoxazolidin-3-yl-3-phosphonate]: the “Cell viability, HSF” value in data set [4] was “no adverse effect was observed”. Also, the half-inhibitory concentration (IC50) is 11.2 ± 1.99 µM in data set [1] (Homo sapiens, 72 h); 27.3 ± 5.43 µM in data set [2] (Homo sapiens, HT-1080, 72 h); 104 ± 7.38 µM in data set [3] (Homo sapiens, MCF7, 72 h). The “Cell viability, HepG2” value in data set [5] is on record as “did not affect cell viability”. Further, the “Cell viability, HEK293” value in data set [6] is given as “did not affect cell viability”.
In the case of `O=c1c2ccccc2n(C[C@@H]2C[C@@H](P(=O)(OCc3ccccc3)OCc3ccccc3)N(Cc3ccccc3)O2)c(=O)n1Cc1cccc([N+](=O)[O-])c1` (relative stereo) [trans-16f, Dibenzyl cis- and trans-2-benzyl-5-((3-(3-nitrobenzyl)-2,4-dioxo-3,4-dihydroquinazolin-1(2H)-yl)methyl)isoxazolidin-3-yl)phosphonate], the IC50 in data set [1] (Homo sapiens, 72 h) was determined as 18.1 ± 0.98 µM; in data set [2] (Homo sapiens, HT-1080, 72 h), 23.1 ± 9.22 µM; in data set [3] (Homo sapiens, MCF7, 72 h), 59.4 ± 0.78 µM.
